Experimental data published in patent US20210284618A1, “FURANOCHALCONES AS INHIBITORS OF CYP1A1, CYP1A2 AND CYP1B1 FOR CANCER CHEMOPREVENTION” (Council of Scientific & Industrial Research, priority 2016, published 2021).

Assays:
CYP1A1 [1] = molecular target: T1, CYP1A1 (Homo sapiens, UniProt P04798); test: CYP1A1 inhibition in HEK293 cells transfected with pcDNA3.1/CYP1A1 (live cells); assay type: cell-based; details: for % inhibition of CYP1A1 in HEK293 cells at 10 μM / inhibition at 10 μM: 5 μM EROD; for inhibition at 10 μM: human, HEK293 cells transfected with pcDNA3.1/CYP1A1 (live cells), probe EROD (5 μM), % inhibition of CYP1A1 in HEK293 cells at 10 μM
T1 construct: host or cells: yeast microsomes (Saccharosomes)
T1 sequence (P04798 1-512): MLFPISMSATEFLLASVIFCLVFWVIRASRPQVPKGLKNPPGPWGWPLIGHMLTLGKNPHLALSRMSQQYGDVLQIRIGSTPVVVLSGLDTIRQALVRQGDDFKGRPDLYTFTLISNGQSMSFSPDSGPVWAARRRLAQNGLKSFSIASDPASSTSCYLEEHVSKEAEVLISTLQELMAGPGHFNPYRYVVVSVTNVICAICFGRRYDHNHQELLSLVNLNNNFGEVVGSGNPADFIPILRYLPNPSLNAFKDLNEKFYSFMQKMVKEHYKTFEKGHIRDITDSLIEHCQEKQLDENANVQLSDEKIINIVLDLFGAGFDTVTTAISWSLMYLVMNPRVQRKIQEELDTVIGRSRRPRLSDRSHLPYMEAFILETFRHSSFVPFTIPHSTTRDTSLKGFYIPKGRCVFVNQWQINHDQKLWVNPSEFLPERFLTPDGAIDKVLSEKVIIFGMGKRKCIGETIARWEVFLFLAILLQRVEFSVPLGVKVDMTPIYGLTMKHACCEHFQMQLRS
Protocol: Example 26. In-vitro CYP450 inhibition in HEK293 cells transfected with pcDNA3.1/CYP1A1 against 5 μM EROD. […] The HEK293 cells used here was procured from ‘European Collection of Authenticated Cell Cultures’ (catalog number. ECACC 85120602).

CYP1A1 [2] = molecular target: T1, CYP1A1; test: In-vitro CYP450 1A1 enzyme inhibition in Saccharosomes; assay type: biochemical; details: for inhibition at 20 min, 10 μM: human, Saccharosomes containing CYP1A1, pH 7.4, probe ethoxyresorufin (5 μM), % inhibition of CYP1A1 in Saccharosomes at 10 μM; for inhibition at 20 min, 10 μM / % inhibition of CYP1A1 in Saccharosomes at 10 μM: 10 μM test compound, 5 μM ethoxyresorufin
Protocol: Example 23. In-vitro CYP450 1A1 enzyme inhibition in Saccharosomes™: The screening method utilizes 384-well microplates to rapidly ascertain relative percentage inhibition of CYP1A1 by a library of compounds. Each reaction was performed in black, clear-bottomed 384-well microplates. A reaction volume of 50 μl comprised of 0.5 pmol of the cytochrome P450 CYP1A1 (Saccharosomes), 5 μM of ethoxyresorufin substrate (which contributes 0.05% DMSO to the well), 10 μM of potential inhibitor test article (which contributes 0.5% DMSO to the well), A P450 reductase NADPH regenerating system (1.3 mM NADP+, 3.3 mM glucose-6-0.02 units phosphate and glucose-6-Phosphate dehydrogenase), potassium phosphate buffer (final well concentration 100 mM, pH 7.4) and water. Very small quantities of magnesium chloride and sodium citrate are added to the NADPH regenerating system, in line with standard published protocols. The potential inhibitor (test article) was pre-incubated with CYP1A1 of at least 20 minutes at 30° C. After this period, the remainder of the reagents required in the assay was added to initiate the process. The reaction mixture was incubated for another 20 minutes at 30° C. The reaction was stopped by adding an 80% acetonitrile, 20% 0.5 M Tris solution. The reactions were monitored using the Biotek Synergy HT plate reader by measuring the endpoint reaction at Excitation 530/(25 bandwidth) & Emission 590/(20 bandwidth) using a gain/sensitivity setting of 60. The mean of the quadruplicates of the negative control (solvent inactivated CYP1A1) was deducted from the mean of potential inhibitor (test article) samples. The percentage was then derived relative to the mean of the wells without inhibitor.
(§1) Example 25. IC50 determination for best compound against CYP1A1, CYP1B1 and other CYPs in Saccharosomes. Compounds were serially diluted to six different concentrations with 10% DMSO in a Sero-Well white microplate. The experiment was performed in a similar way as described above in examples 23 and 24.

CYP1B1 = molecular target: T2, CYP1B1 (Homo sapiens, UniProt Q16678); test: In-vitro CYP450 1B1 enzyme inhibition in Saccharosomes; assay type: biochemical; parameters: purchased CYP Design Ltd; host or cells: yeast microsomes (Saccharosomes); details: 10 μM test compound, 7-ethoxyresorufin; for inhibition at 10 μM: human, Saccharosomes (yeast-derived) with recombinant CYP1B1, probe 7-ethoxyresorufin (5 μl of 0.1 mM), % inhibition of CYP1B1 in Saccharosomes at 10 μM
T2 sequence (Q16678 1-543): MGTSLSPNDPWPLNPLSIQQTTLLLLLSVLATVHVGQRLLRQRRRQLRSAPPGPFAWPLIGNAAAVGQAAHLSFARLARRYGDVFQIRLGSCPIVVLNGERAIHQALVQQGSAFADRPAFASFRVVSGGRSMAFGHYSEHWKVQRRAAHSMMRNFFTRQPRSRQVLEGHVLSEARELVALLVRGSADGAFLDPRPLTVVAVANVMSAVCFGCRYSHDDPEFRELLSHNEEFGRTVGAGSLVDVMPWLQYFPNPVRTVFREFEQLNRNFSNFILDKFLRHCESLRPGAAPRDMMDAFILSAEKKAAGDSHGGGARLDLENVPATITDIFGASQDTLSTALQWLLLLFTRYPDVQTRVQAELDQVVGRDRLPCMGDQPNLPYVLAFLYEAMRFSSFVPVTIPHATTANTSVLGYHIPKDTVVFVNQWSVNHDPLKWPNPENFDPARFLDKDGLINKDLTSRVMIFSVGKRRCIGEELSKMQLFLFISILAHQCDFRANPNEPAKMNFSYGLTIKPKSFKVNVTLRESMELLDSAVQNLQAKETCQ
Protocol: Example 24. In-vitro CYP450 1B1 enzyme inhibition in Saccharosomes™: Regenerating system consists of: 5 μl Solution A (183 mg of NADP++183 mg of glucose-6-phosphate+654 μl of 1.0 M magnesium chloride solution+9.15 ml of sterile ultra-pure water)+1 μl Solution B (250 Units of glucose-6-phosphate dehydrogenase+6.25 ml of 5 mM sodium citrate; mixed in a tube and made up to 10 ml with sterile ultra-pure water)+39 μl 0.2 M Kpi (0.6 ml of 1.0M K2HPO4+9.4 ml of 1.0 M KH2PO4 were mixed and made up to 50 ml with sterile ultra-pure water)+5 μl potential inhibitory compound.
as §1

melting point | inhibition at 10 μM (CYP1A1 [1]) | inhibition at 20 min, 10 μM (CYP1A1 [2]) | inhibition at 10 μM (CYP1B1) | SMILES | further results
 | 71.4% | > 80% | 51.4% | COc1c(C(=O)/C=C/c2ccc(Cl)cc2Cl)c(O)c(OC)c2occc12 [Compound 21, 3-(2,4-dichlorophenyl)-1-(6-hydroxy-4,7-dimethoxybenzofuran-5-yl)prop-2-en-1-one] | % inhibition of CYP1A1 in Saccharosomes at 10 μM (CYP1A1 [2]): 80.2%
 |  | 43.4% | 19.2% | COc1c(C(=O)/C=C/c2ccc3cc4ccccc4cc3c2)c(O)c(OC)c2occc12 [Compound 24, 3-(anthracen-2-yl)-1-(6-hydroxy-4,7-dimethoxybenzofuran-5-yl)prop-2-en-1-one] | 
 | > 80% | > 80% |  | COc1c(C(=O)/C=C/c2ccccc2)c(O)c(OC)c2occc12 [Compound 16, 3-(4,7-dimethoxy-6-hydroxybenzofuran-5-yl)-1-(phenyl)-3-oxopropene] | 
160 to 161 °C | 19.5% | 23.6% |  | COc1c(C(=O)/C=C/c2ccccc2Cl)c(O)c(OC)c2occc12 [Compound 12, 3-(4,7-dimethoxy-6-hydroxybenzofuran-5-yl)-1-(2-chlorophenyl)-3-oxopropene] | 
260 to 262 °C |  |  |  | COc1cccc(/C=C/C(=O)c2c(O)c(OC)c3occc3c2OC)c1OC [Compound 13, 3-(4,7-dimethoxy-6-hydroxybenzofuran-5-yl)-1-(2,3 dimethoxyphenyl)-3-oxopropene] | 
 |  | 48.4% | 41.6% | COc1c(C(=O)/C=C/c2ccc3c(c2)OCO3)c(O)c(OC)c2occc12 [Compound 19, 3-(benzo[d][1,3]dioxol-5-yl)-1-(6-hydroxy-4,7-dimethoxybenzofuran-5-yl)prop-2-en-1-one] | 
 |  | 41.1% | 34.2% | COc1c(C(=O)/C=C/c2ccccc2F)c(O)c(OC)c2occc12 [Compound 23, 3-(2-fluorophenyl)-1-(6-hydroxy-4,7-dimethoxybenzofuran-5-yl)prop-2-en-1-one] | 
 | 74% | 37% |  | COc1ccc(/C=C/C(=O)c2c(O)c(OC)c3occc3c2OC)cc1Br [Compound 17, 3-(4,7-dimethoxy-6-hydroxybenzofuran-5-yl)-1-(3-bromo-4-methoxyphenyl)-3-oxopropene] | 
 |  | 49.7% | 25.8% | COc1c(C(=O)/C=C/c2ccc3ccccc3c2)c(O)c(OC)c2occc12 [Compound 22, 1-(6-hydroxy-4,7-dimethoxybenzofuran-5-yl)-3-(naphthalen-2-yl)prop-2-en-1-one] | 
 | 79.4% | > 80% | > 80% | COc1c(C(=O)/C=C/c2ccsc2)c(O)c(OC)c2occc12 [Compound 20, 1-(6-hydroxy-4,7-dimethoxybenzofuran-5-yl)-3-(thiophen-3-yl)prop-2-en-1-one] | % inhibition of CYP1B1 in Saccharosomes at 10 μM (CYP1B1; 10 µM): 84.0%; % inhibition of CYP1A1 in Saccharosomes at 10 μM (CYP1A1 [2]): 95.1%
 | > 80% | > 80% |  | COc1cc(OC)c(OC)cc1/C=C/C(=O)c1c(O)c(OC)c2occc2c1OC [Compound 18, 3-(4,7-dimethoxy-6-hydroxybenzofuran-5-yl)-1-(2,4,5-trimethoxyphenyl)-3-oxopropene] | % inhibition of CYP1A1 in HEK293 cells at 10 μM (CYP1A1 [1]): 96.8%; % inhibition of CYP1A1 in Saccharosomes at 10 μM (CYP1A1 [2]): 92.2%

The next lines start with the compound.

SMILES | melting point | inhibition at 10 μM (CYP1A1 [1]) | inhibition at 20 min, 10 μM (CYP1A1 [2]) | inhibition at 10 μM (CYP1B1) | further results
COc1c(C(=O)/C=C/c2ccc(Cl)cc2)c(O)c(OC)c2occc12 [Compound 4, 3-(4,7-dimethoxy-6-hydroxybenzofuran-5-yl)-1-(4-chlorophenyl)-3-oxopropene] | 162 to 164 °C | > 80% | 77.5% |  | % inhibition of CYP1A1 in HEK293 cells at 10 μM (CYP1A1 [1]): 85.7%
COc1c(C(C)=O)c(O)c(OC)c2occc12 [Compound 2, 1-(6-hydroxy-4,7-dimethoxybenzofuran-5-yl)ethanone] |  | > 80% |  |  | 
COc1ccc(/C=C/C(=O)c2c(O)c(OC)c3occc3c2OC)cc1 [Compound 9, 3-(4,7-dimethoxy-6-hydroxybenzofuran-5-yl)-1-(4-methoxyphenyl)-3-oxopropene] | 198 to 199 °C | 55.7% | 28.9% |  | 
COc1c2occc2c(OC)c2c(=O)cc(C)oc12 [Compound 1, Khellin, reference compound] |  |  | 88% |  | % inhibition of CYP1A1 in Saccharosomes at 10 μM (CYP1A1 [2]): 88.3%
COc1c(C(=O)/C=C/c2ccc(F)c(Br)c2)c(O)c(OC)c2occc12 [Compound 5, 3-(4,7-dimethoxy-6-hydroxybenzofuran-5-yl)-1-(3-bromo-4-fluorophenyl)-3-oxopropene] | 186 to 188 °C | > 80% | > 80% |  | % inhibition of CYP1A1 in HEK293 cells at 10 μM (CYP1A1 [1]): 82.3%; % inhibition of CYP1A1 in Saccharosomes at 10 μM (CYP1A1 [2]): 83.1%
O=c1cc(-c2ccccc2)oc2c1ccc1ccccc12 [Alpha-naphthoflavone, reference compound] |  | 30% | 97% |  | IC50 (CYP1A1 [1]): > 10000 nM; % inhibition of CYP1B1 in Saccharosomes at 10 μM (CYP1B1): 98%; IC50 (CYP1A1 [2]): 90 nM
COc1c(C(=O)/C=C/c2ccc(F)cc2F)c(O)c(OC)c2occc12 [Compound 7, 3-(4,7-dimethoxy-6-hydroxybenzofuran-5-yl)-1-(2,4-difluorophenyl)-3-oxopropene] | 154 to 156 °C | > 80% |  |  | 
COc1c(C(=O)/C=C/c2ccc(Br)cc2)c(O)c(OC)c2occc12 [Compound 3, 3-(4,7-dimethoxy-6-hydroxybenzofuran-5-yl)-1-(4-bromophenyl)-3-oxopropene] | 135 to 137 °C |  |  |  | 
